Read-outs that look alike come from different tables or passages of the source.
Tests used:
Zymoseptoria tritici = test: Fungicidal activity: leaf blotch of wheat (SEPTTR), disease control on wheat seedlings; format: in vivo; details: for pest or weed control at 100 ppm: high volume application; for pest or weed control at 121.5 g/ha: low volume application, 121.5 g/H
Description: Technical grades of materials were dissolved in acetone, which were then mixed with nine volumes of water (H2O) containing 110 ppm Triton X-100. The fungicide solutions were applied onto wheat seedlings using an automated booth sprayer to run-off. All sprayed plants were allowed to air dry prior to further handling. All fungicides were evaluated using the aforementioned method for their activity vs. all target diseases, unless stated otherwise. Wheat leaf blotch and brown rust activity were also evaluated using track spray applications, in which case the fungicides were formulated as EC formulations, containing 0.1% Trycol 5941 in the spray solutions. Wheat plants (variety Yuma) were grown from seed in a greenhouse in 50% mineral soil/50% soil-less Metro mix until the first leaf was fully emerged, with 7-10 seedlings per pot. These plants were inoculated with an aqueous spore suspension of Zymoseptoria tritici either prior to or after fungicide treatments. After inoculation the plants were kept in 100% relative humidity (one day in a dark dew chamber followed by two to three days in a lighted dew chamber at 20° C.) to permit spores to germinate and infect the leaf. The plants were then transferred to a greenhouse set at 20° C. for disease to develop. When disease symptoms were fully expressed on the 1st leaves of untreated plants, infection levels were assessed on a scale of 0 to 100 percent disease severity. Percent disease control was calculated using the ratio of disease severity on treated plants relative to untreated plants.

Puccinia triticina = test: Fungicidal activity: wheat brown rust (PUCCRT), disease control on wheat seedlings; format: in vivo; details: for pest or weed control at 100 ppm: high volume application; for pest or weed control at 121.5 g/ha: low volume application, 121.5 g/H
Description: Technical grades of materials were dissolved in acetone, which were then mixed with nine volumes of water (H2O) containing 110 ppm Triton X-100. The fungicide solutions were applied onto wheat seedlings using an automated booth sprayer to run-off. All sprayed plants were allowed to air dry prior to further handling. All fungicides were evaluated using the aforementioned method for their activity vs. all target diseases, unless stated otherwise. Wheat leaf blotch and brown rust activity were also evaluated using track spray applications, in which case the fungicides were formulated as EC formulations, containing 0.1% Trycol 5941 in the spray solutions. Wheat plants (variety Yuma) were grown from seed in a greenhouse in 50% mineral soil/50% soil-less Metro mix until the first leaf was fully emerged, with 7-10 seedlings per pot. These plants were inoculated with an aqueous spore suspension of Puccinia triticina either prior to or after fungicide treatments. After inoculation the plants were kept in a dark dew room at 22° C. with 100% relative humidity overnight to permit spores to germinate and infect the leaf. The plants were then transferred to a greenhouse set at 24° C. for disease to develop. Fungicide formulation, application and disease assessment followed the procedures as described in the Example A. Results of the evaluations are shown below in Table 4.

[1] = 24 h, 1 day protectant, read-out: SEPTTR disease control, 1DP, HV activity at 100 ppm
[2] = 24 h, 1 day protectant, read-out: SEPTTR disease control, 1DP, LV activity at 121.5 g/H
[3] = 72 h, 3 day curative, read-out: SEPTTR disease control, 3DC, HV activity at 100 ppm
[4] = 72 h, 3 day curative, read-out: SEPTTR disease control, 3DC, LV activity at 121.5 g/H
[5] = 24 h, 1 day protectant, read-out: PUCCRT disease control, 1DP, HV activity at 100 ppm
[6] = 24 h, 1 day protectant, read-out: PUCCRT disease control, 1DP, LV activity at 121.5 g/H
[7] = 72 h, 3 day curative, read-out: PUCCRT disease control, 3DC, HV activity at 100 ppm
[8] = 72 h, 3 day curative, read-out: PUCCRT disease control, 3DC, LV activity at 121.5 g/H

Row | SMILES | pest or weed control at 100 ppm (Zymoseptoria tritici; [1]) [%] | pest or weed control at 121.5 g/ha (Zymoseptoria tritici; [2]) [%] | pest or weed control at 100 ppm (Zymoseptoria tritici; [3]) [%] | pest or weed control at 121.5 g/ha (Zymoseptoria tritici; [4]) [%] | pest or weed control at 100 ppm (Puccinia triticina; [5]) [%] | pest or weed control at 121.5 g/ha (Puccinia triticina; [6]) [%] | pest or weed control at 100 ppm (Puccinia triticina; [7]) [%] | pest or weed control at 121.5 g/ha (Puccinia triticina; [8]) [%]
1 | COc1cc[n+]([O-])c(C(=O)N[C@@H](C)C(=O)O[C@@H](C)C(c2ccc(C)cc2C)c2ccc(C)cc2C)c1O [Compound 1, 2-(((S)-1-(((S)-1,1-bis(2,4-dimethylphenyl)propan-2-yl)oxy)-1-oxopropan-2-yl)carbamoyl)-3-hydroxy-4-methoxypyridine 1-oxide] | > 80 | > 80 | > 80 | > 80 | > 80 | > 80 | ≤ 80 | ≤ 80
2 | COc1cc[n+]([O-])c(C(=O)N[C@@H](C)C(=O)O[C@@H](C)[C@@H](c2ccccc2)c2ccc(F)cc2)c1O [Compound 2] | > 80 | > 80 | > 80 |  | > 80 | > 80 | > 80 | > 80
3 | COc1ccc(C(c2ccc(OC)cc2F)[C@H](C)OC(=O)[C@H](C)NC(=O)c2c(O)c(OC)cc[n+]2[O-])c(F)c1 [Compound 3] | > 80 | > 80 | ≤ 80 | ≤ 80 | > 80 | > 80 | > 80 | ≤ 80
4 | COc1ccc(F)c(C(c2cc(OC)ccc2F)[C@H](C)OC(=O)[C@H](C)NC(=O)c2c(O)c(OC)cc[n+]2[O-])c1 [Compound 4] | ≤ 80 |  |  | > 80 | > 80 |  | ≤ 80 | 
5 | COc1cc[n+]([O-])c(C(=O)N[C@@H](C)C(=O)O[C@@H](C)C(c2ccc(Cl)c(Cl)c2)c2ccc(Cl)c(Cl)c2)c1O [Compound 5] | > 80 | > 80 | ≤ 80 | ≤ 80 |  | ≤ 80 |  | 
6 | COc1cc[n+]([O-])c(C(=O)N[C@@H](C)C(=O)O[C@@H](C)C(c2ccc(Cl)c(F)c2)c2ccc(Cl)c(F)c2)c1O [Compound 6] | > 80 | > 80 | > 80 | > 80 | > 80 | ≤ 80 |  | 
7 | COc1cc[n+]([O-])c(C(=O)N[C@@H](C)C(=O)O[C@@H](C)C(c2ccc(Cl)c(C)c2)c2ccc(Cl)c(C)c2)c1O [Compound 7] |  | > 80 |  | > 80 |  | > 80 |  | ≤ 80
8 | COc1cc[n+]([O-])c(C(=O)N[C@@H](C)C(=O)O[C@@H](C)C(O)(c2ccc(Cl)c(F)c2)c2ccc(Cl)c(F)c2)c1O [Compound 9] | > 80 | > 80 |  |  |  |  |  | 
9 | COc1cc[n+]([O-])c(C(=O)N[C@@H](C)C(=O)O[C@@H](C)C(O)(c2ccc(Cl)c(Cl)c2)c2ccc(Cl)c(Cl)c2)c1O [Compound 11] | > 80 | > 80 |  | ≤ 80 |  |  |  | 
10 | COc1cc[n+]([O-])c(C(=O)N[C@@H](C)C(=O)O[C@@H](C)C(C)(c2ccccc2)c2ccccc2)c1O [Compound 27] | > 80 | ≤ 80 | > 80 | ≤ 80 |  |  |  | 
11 | COc1cc[n+]([O-])c(C(=O)N[C@@H](C)C(=O)O[C@@H](C)C(c2cccc(F)c2)c2cccc(F)c2)c1O [Compound 35] |  | ≤ 80 |  | ≤ 80 |  |  |  | 
12 | COc1cc[n+]([O-])c(C(=O)N[C@@H](C)C(=O)O[C@@H](C)C(c2cccc(OC)c2OC)c2cccc(OC)c2OC)c1O [Compound 40] |  |  |  | ≤ 80 |  |  |  | 
13 | COc1ccc(F)cc1C(c1cc(F)ccc1OC)[C@H](C)OC(=O)[C@H](C)NC(=O)c1c(O)c(OC)cc[n+]1[O-] [Compound 41] |  | ≤ 80 |  | ≤ 80 |  |  |  | 

From patent US10111432B2, “Picolinamide N-oxide compounds with fungicidal activity” (Dow AgroSciences LLC, priority 2016, dated 2018)
